Test results: patent publication US7202244B2, “Chk-1 inhibitors” (Millennium Pharmaceuticals, Inc., priority 2002, dated 2007)

The molecules below were run against T1, GST-Chk1 (recombinant human Chk1) (Homo sapiens, UniProt O14757) (assay: Chk1 FlashPlate kinase assay). Details: 1 uM ATP.
T1 construct: made in house; host or cells: insect cells (Bac-to-Bac baculovirus system)
T1 sequence (O14757 1-476): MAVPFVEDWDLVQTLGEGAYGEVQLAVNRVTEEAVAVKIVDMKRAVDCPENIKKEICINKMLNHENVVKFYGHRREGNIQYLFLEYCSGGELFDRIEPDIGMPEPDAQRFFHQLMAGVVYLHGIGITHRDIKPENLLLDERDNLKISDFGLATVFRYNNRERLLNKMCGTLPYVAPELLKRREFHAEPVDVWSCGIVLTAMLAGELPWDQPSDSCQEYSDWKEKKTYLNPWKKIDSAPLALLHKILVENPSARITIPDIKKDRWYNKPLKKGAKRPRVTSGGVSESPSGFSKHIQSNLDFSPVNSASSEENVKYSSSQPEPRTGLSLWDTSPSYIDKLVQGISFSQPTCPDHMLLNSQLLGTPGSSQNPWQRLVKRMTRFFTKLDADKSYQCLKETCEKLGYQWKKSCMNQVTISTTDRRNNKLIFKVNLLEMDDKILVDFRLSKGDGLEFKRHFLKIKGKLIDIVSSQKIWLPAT
Assay type: biochemical
Method: Recombinant human Chk1 was expressed as a fusion protein with glutathione S-transferase at the amino-terminus (GST-Chk1) using standard baculovirus vectors and (Bac-to-Bac®) insect cell expression system purchased from GIBCO™ Invitrogen. Recombinant protein expressed in insect cells was purified using glutathione sepharose (Amersham Biotech) using standard procedures described by the manufacturer.
Chk1 FlashPlate® Kinase Assay:
Reactions were incubated for 30 minutes at room temperature, terminated with 50 ul of 50 mM EDTA and 90 ul were transferred to streptavidin-coated FlashPlates® (NEN) and incubated for 1 hour at room temperature. Plates were washed with phosphate buffered salaine containing 0.01% Tween-20 and 10 mM sodium pyrophosphate. Plates were dried, sealed with Topseal™ (NEN) and amount of ^33P incorporated into the peptide substate measure using a Packard Topcount® NXT™ scintillation counter with standard settings.
Compounds of the present invention were tested in the Chk1 FlashPlate® kinase assay described above.

Row | IC50 | SMILES
1 | < 1000 nM | COc1ccc(C)cc1NC(=O)Nc1cnccn1 [Example 8, 1-(2-Methoxy-5-methyl-phenyl)-3-pyrazin-2-yl-urea]
2 | < 1000 nM | O=C(Nc1cnccn1)Nc1ccccc1OC(F)(F)F [Example 9, 1-Pyrazin-2-yl-3-(2-trifluoromethoxy-phenyl)-urea]
3 | < 1000 nM | Cc1ccc(Cl)cc1NC(=O)Nc1cnccn1 [Example 10, 1-(5-Chloro-2-methyl-phenyl)-3-pyrazin-2-yl-urea]
4 | < 1000 nM | COc1ccc(NC(C)=O)cc1NC(=O)Nc1cnccn1 [Example 11, N-[4-Methoxy-3-(3-pyrazin-2-yl-ureido)-phenyl]-acetamide]
5 | < 1000 nM | COC(=O)c1ccc(OC)c(NC(=O)Nc2cnccn2)c1 [Example 12, 4-Methoxy-3-(3-pyrazin-2-yl-ureido)-benzoic acid methyl ester]
6 | < 1000 nM | COc1ccc(C(F)(F)F)cc1NC(=O)Nc1cnccn1 [Example 13, 1-(2-Methoxy-5-trifluoromethyl-phenyl)-3-pyrazin-2-yl-urea]
7 | < 1000 nM | COc1ccc(NC(=O)Nc2cnccn2)c(OC)c1 [Example 14, 1-(2,4-Dimethoxy-phenyl)-3-pyrazin-2-yl-urea]
8 | < 1000 nM | COc1ccc(Cl)c(NC(=O)Nc2cnccn2)c1 [Example 15, 1-(2-Chloro-5-methoxy-phenyl)-3-pyrazin-2-yl-urea]
9 | < 20000 nM | COc1ccc(Cl)cc1NC(=O)Nc1ccncn1 [Example 16, 1-(5-Chloro-2-methoxy-phenyl)-3-pyrimidin-4-yl-urea]
10 | < 20000 nM | COc1ccccc1NC(=O)Nc1cnccn1 [Example 17, 1-(2-Methoxy-phenyl)-3-pyrazin-2-yl-urea]
11 | < 20000 nM | COc1ccc(NC(=O)Nc2cnccn2)cc1Cl [Example 18, 1-(3-Chloro-4-methoxy-phenyl)-3-pyrazin-2-yl-urea]
12 | < 20000 nM | O=C(Nc1cccc(Cl)c1)Nc1cnccn1 [Example 19, 1-(3-Chloro-phenyl)-3-pyrazin-2-yl-urea]
13 | < 20000 nM | O=C(Nc1ccc(N2CCCCC2)cc1)Nc1cnccn1 [Example 21, 1-(4-Piperidin-1-yl-phenyl)-3-pyrazin-2-yl-urea]
14 | < 20000 nM | O=C(Nc1cnccn1)Nc1cnccn1 [Example 23, 1,3-Di-pyrazin-2-yl-urea]
15 | < 20000 nM | O=C(Nc1ccc2c(c1)OCO2)Nc1cnccn1 [Example 24, 1-Benzo[1,3]dioxol-5-yl-3-pyrazin-2-yl-urea]
16 | < 1000 nM | O=C(Nc1cnccn1)Nc1cc(Cl)ccc1OCc1cccnc1 [Example 27, 1-[5-Chloro-2-(pyridin-3-ylmethoxy)-phenyl]-3-pyrazin-2-yl-urea]

Row | SMILES | IC50
17 | CC(C)CCOc1ccc(Cl)cc1NC(=O)Nc1cnccn1 [Example 7, 1-[5-Chloro-2-(3-methyl-butoxy)-phenyl]-3-pyrazin-2-yl-urea] | < 1000 nM
18 | O=C(Nc1cnccn1)Nc1cc(Cl)ccc1OCCN1CC1 [Example 26, 1-[2-(2-Aziridin-1-yl-ethoxy)-5-chloro-phenyl]-3-pyrazin-2-yl-urea] | < 1000 nM
